The target in assay [1] is T1, APE-1 (Homo sapiens (Human), UniProt P27695). The experiment in a line: Molecular beacon assay for APE-1 endonuclease inhibition. The assay is classed as biochemical. The settings on record: molecular beacon assay, endonuclease activity; read-out: Ki APE-1 endonuclease inhibition. An excerpt:
Screening Assays for APE1 Inhibition—The initial screen was designed to look at the effect of potential inhibitors on APE1 repair kinetics. The approach can be used as a high throughput screen by choosing a specific timepoint to monitor. The screen utilizes a molecular beacon with a tetrahydrofuran (THF) abasic site within the stem region of a DNA hairpin that has a fluorophore on the 5′-terminus and a quencher on the 3′-terminus (FIG. 2a). […] An example of the molecular beacon screen and the excision assay are shown in FIGS. 2b,c and 2d, respectively.
Molecular Beacon Assay for Screening of APE-1 Inhibitors. A fluorescence-based molecular beacon assay to measure APE-1 protein activity and inhibition was performed as described previously with some modifications. Tang et al. Neuro Oncol. 13, 471-486 (2011) APE-1 (2 nM) in 10 mM HEPES (pH 7.8) 0.5 mM MgCl, 100 mM NaCl, 100 mM KCl, 0.0005% (w/v) BSA, was incubated with 20 nM 5′-(F)-CGACTXTTGAATTGACACGCCATGTCGATCAATTCAATAGTCG-(D)-3′ [X=tetrahydrofuran (THF) abasic site modification; F, 6-carboxyfluorescein (6-FAM); and D, DABCYL] that forms a hairpin with a 15 base pair stem and a 13 base loop. The THF modification is a known substrate for APE-1 excision. APE-1 mediated cleavage of the phosphodiester backbone at the THF-abasic site led to release of the 5′ 6-FAM (fluorophore) containing pentanucleotide, disrupting the Förster Resonance Energy Transfer (FRET) mediated quenching of the 6-FAM by DABCYL in the native hairpin oligomer. Since the signal was generated by continuous liberation of the fluorophore-labeled excision fragment, progress of this reaction could be monitored in real-time using a Cary Eclipse fluorescence spectrometer (Varian, Palo Alto, Calif.) or a Synergy H1 multi-well plate reader (BioTek, Winooski, Vt.). Reactions were optimized to yield ˜90% substrate turnover in 10 min, and fluorescence intensities measured every 12 s at 495 nm excitation and 520 nm emission. Data from the first 1-3 min of the assays (linear phase) were used to determine rate of substrate turnover (V0). The Michaelis constant (KM) was deduced experimentally, by incubating 2 nM APE-1 protein with 2-500 nM hairpin DNA substrate and measuring V0 —the experimentally observed V0 were analyzed as a function of substrate concentration [S] via non-linear regression using Prism (v.4; GraphPad Software, Inc., La Jolla, Calif.) and the KM was calculated as per the algorithm in the software package. To assay inhibition, 2 nM APE-1 protein was pre-incubated with 0.05-10.00 μM of the candidate inhibitors at 25° C. for 60 min, before initiating the excision assay by addition of hairpin DNA substrate. V0 was calculated at various concentrations of inhibitors and represented as inverse function of increasing inhibitor concentration [I]. […] All assays were carried out in three independent sets to obtain mean data and standard error of mean.
(§1) Screening for APE-1 Inhibitors. […] In this assay, the DNA hairpin substrate has a 6-FAM fluorophore on the 5′-terminus, a DABACYL fluorescence quencher on the 3′-terminus and a THF abasic site located 6 base pairs from the 5′-terminus in the stem region (FIG. 6). APE-1 activity is monitored as an increase in fluorescence due to the release of the 5′-(6-FAM)-GCACT fragment as a function of time. […] In this assay, substrate turnover was calculated from relative intensities of cleaved vs. intact oligomers and correlated with inhibitor concentration.

Assay [2] deals with T1, APE-1. The experiment in a line: Gel-based excision assay for APE-1 inhibitors. Type of assay: biochemical. The settings on record: APE-1 cleaved fragment vs. full length DNA substrate. The protocol: as §1
The target of assay [3] is APE-1 activity in T98G cell nuclear lysates (Homo sapiens (Human), UniProt P27695). The experiment in a line: Molecular beacon assay in T98G cell nuclear extracts. Type of assay: biochemical. The protocol: Isolation and Assay of APE-1 Protein from Nuclear Extracts of Glioma Cells. Human glioblastoma cells (T98G) were maintained in growth medium, i.e., Eagle's Minimum Essential Medium (EMEM) with 10% fetal bovine serum (FBS), […] gentamycin, 1×MEM non-essential amino acids and 1 mM sodium pyruvate. Cells were harvested by Trypsin-EDTA treatment, washed with 1×PBS and nuclear proteins isolated using the CelLytic NuCLEAR Extraction kit (Sigma-Aldrich) as per manufacturer's instructions. Isolated nuclear proteins were estimated colorimetrically (BCA protein assay) and stored at −80° C. (long term) or at −20° C. during regular use. To assay APE-1 activity in T98G cells, nuclear extracts were serially diluted in 10 mM HEPES, 50 mM KCl, 1 mM DTT, 20% (v/v) glycerol and the activities measured via the molecular beacon assay (as described above). […] EC2 nM of nuclear extracts was incubated with 2 to 500 nM hairpin DNA substrate and the V0 measured for each value of [S]. Finally, the apparent KM* was deduced using the software algorithm in Prism (as described previously), and the KM* was used to determine the apparent Ki*. Inhibition of EC2 nM APE-1 activity by the inhibitors was assayed via the molecular beacon assay (described above).
Inhibition of APE-1 Activity in Nuclear Lysates. The ability of 1-5 and 8 to block APE-1 endonuclease activity in a complex mixture of proteins from T98G cell nuclear lysates was tested using the molecular beacon assay. The APE-1 activity in the lysates was standardized to give ˜90% turnover of 25 nM substrate in 10 min.

The test system of assay [4] is T98G cells. The assay is described as follows: Long term (10-day) CyQUANT cytotoxicity assay. The assay is classed as cell-based, human. On the procedure: (§2) Cytotoxic Effects of APE-1 Inhibitors on Cultured Human Glioblastoma (T98G) Cells. Human glioblastoma cells (T98G) were maintained in growth medium as described above. […] The cells were allowed to attach and grow for 24 h, and then treated with serial dilutions of the drug for 72 h. After treatment, viable cells were measured by an MTS assay using the CellTiter 96 AQueous kit (Promega) as per manufacturer's instructions. […] The cells were allowed to attach and grow for 24 h and treated with serial dilutions of the drug for 240 h. After treatment, viable cells were measured using the CyQUANT cell proliferation assay kit (Invitrogen) as per manufacturer's instructions.
(§3) Toxicity. It was assumed that inhibition of APE-1 activity would be lead to toxicity since genetic deletion of the protein is lethal to cells. […] The toxicities were also determined in combination with the DNA minor groove methylating agent, MeLex. MeLex efficiently and selectively generates N3-methyladenine, which is converted into an abasic site by a BER glycosylase and/or hydrolytic depurination. The T98G cell line is relatively resistant to DNA damaging anticancer agents due to expression of multiple drug resistance proteins and O^6-alkylguanine-DNA alkyltransferase. […] A goal of the development of APE-1 inhibitors is to determine if they can be used to enhance the activity of DNA alkylating agents.

Assay [5] relates to VERA kidney cell line. The settings on record: read-out: IC50 for the toxicity; cited from earlier work.
Assay [6] concerns the target T1, APE-1. The experiment in a line: Displacement of 4 from APE-1 by E3330 (fluorescence). Type of assay: binding. The settings on record: 6 μM 4, 1 μM APE-1. On the procedure:
(§4) Fluorescence and UV Spectrometry Binding Studies. The fluorescence spectra were measured at room temperature on a Cary Eclipse fluorescence spectrometer (Varian, Palo Alto, Calif.). The fluorescence properties of 1 and 4 were measured in 10 mM HEPES, 0.5 mM MgCl2, 100 mM KCl, 100 mM NaCl, 2% glycerol, in absence or presence of wild type (unmodified) hairpin DNA (5′-[…]-3′) or THF-modified hairpin DNA (5′-CGAXTTCGCAGGACCGAATTCG-3′) or APE-1 protein. A solution of 0.5 μM of either DNA sequence was titrated against 1-10 μM ethidium bromide (EtBr) to determine saturation of EtBr by fluorescence (530 nm excitation with 610 nm emission) and the subsequent displacement of EtBr (4 μM) by 1-20 μM 1 or 4 was also assayed. The APE protein-inhibitor binding fluorescence was assayed by titrating 0.1-20 μM of 4 against 1 μM of APE-1 protein.
Interaction of Inhibitors with APE-1 Protein. To establish whether there is a direct interaction between an inhibitor and APE-1, the fluorescence spectra of 4 was determined in the absence and presence of increasing amounts of the protein.

The test system of assay [7] is T98G cells. The assay is described as follows: Short term (72 h) MTS cytotoxicity assay. The assay is classed as cell-based, human. The settings on record: 72 h MTS assay. On the procedure:
as §2, §3

For assay [8], the system named is T98G cells. The assay is described as follows: Potentiation of MeLex cytotoxicity, short term (72 h) MTS assay. The assay is classed as cell-based, human. The settings on record: 72 h MTS assay. On the procedure: (§5) Cytotoxic Potentiation of Various DNA Damaging Agents. T98G cells maintained in growth medium were resuspended in fresh growth medium and seeded into 96-well plates at 2000 cells/well (short term cytotoxicity) or 100 cells/well (long term cytotoxicity) as described in the previous section. After 24 h, the cells were treated with serial dilutions of various DNA damaging drugs in absence or presence of APE-1 inhibitors. At the end of the treatment period, cell survival was assayed using CellTiter 96 AQueous or CyQUANT kits for the short- and long-term studies respectively.
as §3
Background: Tetrazolium dyes change colour on reduction, which living cells bring about.

Assay [9] deals with T98G cells. The assay is described as follows: Potentiation of MeLex cytotoxicity, long term (10 d) CyQUANT assay. Type of assay: cell-based, human. The settings on record: LD10 concentration. On the procedure: as §5, §3
The subject of assay [10] is aldehyde reactive sites in genomic DNA from T98G cells. Type of assay: cell-based, human. The settings on record: for effect on ARS: 0.25 μM compound alone; for level of ARS in combination with MeLex: 80 μM MeLex + 0.25 μM compound, after 6 h.
Experimental: Quantification of Abasic Sites. T98G cells maintained in growth medium, were harvested by Trypsin-EDTA treatment, resuspended in fresh growth medium at a density of 2.5×10^5 cells mL^−1, and 2 mL (5×10^5 cells) of this suspension was seeded into the wells of a sterile 6-well tissue culture plate. Cells were allowed to grow for 24 h, treated with the various compounds for different time points and/or at different concentrations. At the end of each treatment, adherent cells were harvested by trypsin-EDTA treatment and pooled with live and dead cells in culture supernatant. Pooled cells in suspension were pelleted by centrifugation, washed with 1×PBS and genomic DNA was isolated using the DNAzol reagent (Invitrogen). DNA in solution was quantified by UV absorbance (λ260 nm) using a Synergy H1 multiwell plate reader (BioTek, Winooski, Vt.). Abasic sites in purified DNA were then reacted with the biotin-conjugated aldehyde reactive probe (ARP), immobilized onto 96-well ELISA plates, and detected using horseradish peroxidase (HRP)-conjugated streptavidin using a colorimetric substrate as per manufacturer's instructions (Dojindo Molecular Technologies, Rockville, Md.).
The biotin tagged ARS are quantified using an avidin-biotin assay, followed by colorimetric detection with horseradish peroxidase conjugated to avidin.
The test system of assay [11] is HEYC-2 ovarian tumor cells. The settings on record: read-out: IC50 for cell growth; cited from earlier work.
Assay [12] deals with SKOV-3X ovarian tumor cells. The settings on record: read-out: IC50 for cell growth; cited from earlier work.
The target of assay [13] is THF modified hairpin DNA. The assay is described as follows: EtBr fluorescence titration with hairpin DNA. The assay is classed as binding. On the procedure:
as §4, with “(5′-[…]-3′)” for “(5′-CGAXTTCGCAGGACCGAATTCG-3′)”
(§6) Interaction of Inhibitors with DNA. A potential mechanism by which compounds can block APE-1 activity involves the interaction with the DNA substrate by intercalation. Such binding to DNA could sterically reduce the accessibility of the protein to the abasic site substrate. […] To further probe the potential role of intercalation, the effect of EtBr on the fluorescence of 1 and 4 were determined. […] The small changes in the fluorescence of 4 with both DNAs indicate little discrimination for the THF lesion.

Assay [14] addresses unmodified hairpin DNA. The assay is described as follows: EtBr fluorescence titration with hairpin DNA. Type of assay: binding. The protocol:
as §4, with “(5′-[…]-3′)” for “(5′-CGAXTTCGCAGGACCGAATTCG-3′)”
as §6

In assay [15] the target is double-stranded DNA. The settings on record: cited from earlier work.
Assay [16] relates to T98G cells. The assay is described as follows: MTT toxicity assay in T98G glioma cells. The settings on record: FIG. 3(a). The assay is classed as cell-based, human. On the procedure: FIGS. 3(a)-(b). […] (b) Toxicity of MeLex (efficiently generates 3-mA) in the absence (o) and presence of 50 nM ( ) or 250 nM (∇) inhibitor 4.
Toxicity of APE1 Inhibitors in T98G Glioma Cells—A short term (MTT assay) and long term (clonogenic assay) dose response toxicity for the inhibitors was performed in T98G glioma cells in the absence of a DNA alkylating agent. This cell line was selected because it is quite resistant to many DNA alkylating agents; therefore, it represents a good model to test the potential effect of APE1 inhibition on the toxicity of DNA damaging compounds.

T1 sequence (P27695 whole entry): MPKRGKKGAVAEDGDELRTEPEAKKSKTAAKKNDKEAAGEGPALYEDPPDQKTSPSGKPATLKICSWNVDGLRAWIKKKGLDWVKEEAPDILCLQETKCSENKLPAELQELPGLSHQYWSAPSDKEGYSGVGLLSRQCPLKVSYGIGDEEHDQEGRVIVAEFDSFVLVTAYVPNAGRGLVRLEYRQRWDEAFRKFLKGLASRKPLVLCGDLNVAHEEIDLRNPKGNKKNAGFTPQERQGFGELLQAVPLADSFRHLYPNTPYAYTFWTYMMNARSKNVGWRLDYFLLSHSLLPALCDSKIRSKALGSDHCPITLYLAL
Sequence of APE-1 activity in T98G cell nuclear lysates (P27695 whole entry, stated change not applied): as the sequence (P27695 whole entry) above

Take `Cc1cc(N/N=C/c2ccc3c(c2)OCO3)c2cc3c(cc2n1)OCO3` [Compound 3]: the inhibitory constant (Ki) (in general, a measure of affinity in units of concentration, obtained from inhibition or displacement) in assay [1] was found to be 190 nM; in [3], 280 nM. Besides, the IC50 was 2900 nM in assay [2]; 540 nM in assay [4] (Homo sapiens, T98G, assay not stated, read-out: toxicity observed in the glioma T98G line); 630 nM in assay [5].

With `CCCCCCCCC/C(=C\C1=C(C)C(=O)C(OC)=C(OC)C1=O)C(=O)O` [Compound E3330], in assay [6], the “E3330 concentration for approximately 50% decrease in the fluorescence of 4” value is recorded as “approximately 12 μM”. Moreover, the LD10 concentration in assay [7] was found to be 6.9 µM; in assay [4] (long term assay) it was 14.80 µM. For the same molecule, the “LD50 of MeLex in the presence of LD10 concentration of inhibitor” value in [8] came to 128 µM. Moreover, the “potentiating the toxicity of MeLex” value in assay [9] is reported as “little or no contribution”. Also, in assay [10], the “effect on ARS” value is “returned to control levels by 18 h”. Also, the “level of ARS in combination with MeLex” value in [10] is “dropped off”. For the same molecule, the IC50 in assay [11] and in assay [12] was ~35 µM throughout.

For `CC[n+]1c(-c2ccccc2)c2cc(N)ccc2c2ccc(N)cc21` [EtBr, ethidium bromide], the Ki in [1] is 1800 nM. Further, the Kd (usually a measure of binding affinity in units of concentration) in assay [13] was 1800 nM; in [14], 1600 nM; in assay [15], ~1000 nM. Further, the “effect on ARS” value in [10] is reported as “no effect”. The “level of ARS in combination with MeLex” value in [10] was “dropped off”.

As for `CCn1c2ccccc2c2cc(/C=N/Nc3cc(C)nc4cc5c(cc34)OCO5)ccc21` [Inhibitor-1], the LD50 in assay [16] amounted to 960 nM.

Values taken from US9624235B2, “Compounds and methods for inhibition of AP endonuclease-1/redox factor-1 (HAPE1) activity” (University of Pittsburgh—Of the Commonwealth System of …, priority 2012, dated 2017).
